Experimental data taken from patent US20240316215A1, “CONTROLLED DRUG RELEASE MATERIAL” (ADURO MATERIAL AB, priority 2021, published 2024).
pEC50: −log10 of the molar value.

Columns and labels:
[1] = system: breast cancer cell lines; settings: read-out: EC50 previously reported; cited from earlier work
[2] = system: MCF-7 human breast cancer cells; experiment: cells
Description: Cell viability studies are typically conducted on cells that are actively dividing, in the linear range of logarithmic division. However, tumors are typically dense, highly populated 3-dimensional cultures.

NC(=O)NO [hydroxyurea]
pEC50 [1]: ~3.70 | pEC50 ([2]; MCF7, MCF-7 cells cultured at 1×10^4/well): 3.70 | pEC50 ([2]; MCF7, MCF-7 cells cultured at 2×10^4/well): 3.40 | pEC50 ([2]; MCF7, MCF-7 cells cultured at 4×10^4/well): 3.10 | pEC50 ([2]; MCF7, lowest cell concentration, 1×10^4 cells/well): 3.70
